# Measured values published in ChEMBL document CHEMBL1158630, “Synthesis, docking studies, and evaluation of pyrimidines as inhibitors of SARS-CoV 3CL protease” (Bioorg Med Chem Lett, 2010).
# Target: Replicase polyprotein 1a (Severe acute respiratory syndrome-related coronavirus, UniProt P0C6U8)
# Test: Inhibition of SARS coronavirus chymotrypsin-like protease by fluorescence plate reader
row,Structure (SMILES),IC50
1,N#Cc1c(-c2cccc(Cl)c2)nc(SCc2ccccc2)[nH]c1=O,> 50 µM
2,N#Cc1c(-c2ccccc2)nc(SCc2ccccc2)[nH]c1=O,> 50 µM
3,Cc1ccc(-c2nc(SCc3ccccc3)[nH]c(=O)c2C#N)cc1,> 50 µM
4,N#Cc1c(-c2ccccc2)nc(SCCc2ccccc2)[nH]c1=O,> 50 µM
5,COc1ccc(-c2nc(SCc3ccccc3)[nH]c(=O)c2C#N)cc1,> 50 µM
6,COc1ccc(-c2nc(SCCc3ccccc3)[nH]c(=O)c2C#N)cc1,20.3 µM
7,COc1ccc(-c2nc(SCc3ccc([N+](=O)[O-])cc3)[nH]c(=O)c2C#N)cc1,26.3 µM
8,Cc1ccc(-c2nc(SCc3ccc([N+](=O)[O-])cc3)[nH]c(=O)c2C#N)cc1,> 50 µM
9,Cc1ccc(-c2nc(SCCc3ccccc3)[nH]c(=O)c2C#N)cc1,> 50 µM
10,N#Cc1c(-c2ccccc2)nc(SCc2ccc([N+](=O)[O-])cc2)[nH]c1=O,35.2 µM
11,N#Cc1c(-c2ccc(Cl)cc2)nc(SCc2ccc([N+](=O)[O-])cc2)[nH]c1=O,6.1 µM
12,N#Cc1c(-c2ccc(Cl)cc2)nc(SCCc2ccccc2)[nH]c1=O,16.9 µM
13,N#Cc1c(-c2cccc([N+](=O)[O-])c2)nc(SCCc2ccccc2)[nH]c1=O,> 50 µM
14,N#Cc1c(-c2cccc([N+](=O)[O-])c2)nc(SCc2ccc([N+](=O)[O-])cc2)[nH]c1=O,10.6 µM
